Experimental data reported in the kinase profiling compilation of Christmann-Franck et al. (2016).

Assays:
Experiment in all cases: radiometric filter-binding kinase assay
YES1 (human) = YES1 (human) (UniProt P07947)
SRPK1 (human) = SRPK1 (human) (UniProt Q96SB4)
[1] = system: AKT2 (human), P31751 [S474D]
MAPK1 (human) = MAPK1 (human) (UniProt P28482)
CSNK2A1 (human) = CSNK2A1 (human) (UniProt P68400)
BTK (human) = BTK (human) (UniProt Q06187)
IRAK4 (human) = IRAK4 (human) (UniProt Q9NWZ3)
RIPK2 (human) = RIPK2 (human) (UniProt O43353)
MAP3K1 (human) = MAP3K1 (human) (UniProt Q13233)
MAPKAPK3 (human) = MAPKAPK3 (human) (UniProt Q16644)
NEK6 (human) = NEK6 (human) (UniProt Q9HC98)
FLT1 (human) = FLT1 (human) (UniProt P17948)
MAPK14 (human) = MAPK14 (human) (UniProt Q16539)
JAK2 JH1 JH2 (human) = JAK2 JH1 JH2 (human) (UniProt O60674)
MAPK15 (human) = MAPK15 (human) (UniProt Q8TD08)
MARK4 (human) = MARK4 (human) (UniProt Q96L34)
Chain of MARK4 (human) (Q96L34 whole entry, looked up): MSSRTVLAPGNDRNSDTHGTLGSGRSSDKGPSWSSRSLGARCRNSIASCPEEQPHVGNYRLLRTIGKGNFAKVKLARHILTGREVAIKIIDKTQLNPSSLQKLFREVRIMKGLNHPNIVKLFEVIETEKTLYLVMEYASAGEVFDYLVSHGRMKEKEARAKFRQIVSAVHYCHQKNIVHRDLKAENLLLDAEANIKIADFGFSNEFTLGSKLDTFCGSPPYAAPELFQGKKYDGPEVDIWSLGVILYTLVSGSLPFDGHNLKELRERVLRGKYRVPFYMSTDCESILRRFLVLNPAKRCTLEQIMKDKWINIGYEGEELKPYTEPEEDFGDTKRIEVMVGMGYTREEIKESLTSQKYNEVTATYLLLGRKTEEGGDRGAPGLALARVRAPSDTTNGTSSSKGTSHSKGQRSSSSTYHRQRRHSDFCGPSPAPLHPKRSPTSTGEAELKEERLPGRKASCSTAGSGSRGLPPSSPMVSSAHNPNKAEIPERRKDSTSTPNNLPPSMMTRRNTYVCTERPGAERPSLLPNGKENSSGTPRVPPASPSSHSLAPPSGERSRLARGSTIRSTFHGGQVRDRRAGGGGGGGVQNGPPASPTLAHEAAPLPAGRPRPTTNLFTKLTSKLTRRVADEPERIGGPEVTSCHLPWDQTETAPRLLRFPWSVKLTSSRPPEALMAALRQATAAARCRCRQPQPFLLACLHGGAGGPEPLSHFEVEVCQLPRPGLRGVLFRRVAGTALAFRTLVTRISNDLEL

[2] = target: STK11 CAB39 STRADA (human) (UniProt Q9Y376+Q7RTN6+Q15831)
HIPK1 (human) = HIPK1 (human) (UniProt Q86Z02)
RPS6KA1 KD1 KD2 (human) = RPS6KA1 KD1 KD2 (human) (UniProt Q15418)
MARK3 (human) = MARK3 (human) (UniProt P27448)
NTRK1 (human) = NTRK1 (human) (UniProt P04629)
INSRR (human) = INSRR (human) (UniProt P14616)
Chain of INSRR (human) (P14616 whole entry, looked up): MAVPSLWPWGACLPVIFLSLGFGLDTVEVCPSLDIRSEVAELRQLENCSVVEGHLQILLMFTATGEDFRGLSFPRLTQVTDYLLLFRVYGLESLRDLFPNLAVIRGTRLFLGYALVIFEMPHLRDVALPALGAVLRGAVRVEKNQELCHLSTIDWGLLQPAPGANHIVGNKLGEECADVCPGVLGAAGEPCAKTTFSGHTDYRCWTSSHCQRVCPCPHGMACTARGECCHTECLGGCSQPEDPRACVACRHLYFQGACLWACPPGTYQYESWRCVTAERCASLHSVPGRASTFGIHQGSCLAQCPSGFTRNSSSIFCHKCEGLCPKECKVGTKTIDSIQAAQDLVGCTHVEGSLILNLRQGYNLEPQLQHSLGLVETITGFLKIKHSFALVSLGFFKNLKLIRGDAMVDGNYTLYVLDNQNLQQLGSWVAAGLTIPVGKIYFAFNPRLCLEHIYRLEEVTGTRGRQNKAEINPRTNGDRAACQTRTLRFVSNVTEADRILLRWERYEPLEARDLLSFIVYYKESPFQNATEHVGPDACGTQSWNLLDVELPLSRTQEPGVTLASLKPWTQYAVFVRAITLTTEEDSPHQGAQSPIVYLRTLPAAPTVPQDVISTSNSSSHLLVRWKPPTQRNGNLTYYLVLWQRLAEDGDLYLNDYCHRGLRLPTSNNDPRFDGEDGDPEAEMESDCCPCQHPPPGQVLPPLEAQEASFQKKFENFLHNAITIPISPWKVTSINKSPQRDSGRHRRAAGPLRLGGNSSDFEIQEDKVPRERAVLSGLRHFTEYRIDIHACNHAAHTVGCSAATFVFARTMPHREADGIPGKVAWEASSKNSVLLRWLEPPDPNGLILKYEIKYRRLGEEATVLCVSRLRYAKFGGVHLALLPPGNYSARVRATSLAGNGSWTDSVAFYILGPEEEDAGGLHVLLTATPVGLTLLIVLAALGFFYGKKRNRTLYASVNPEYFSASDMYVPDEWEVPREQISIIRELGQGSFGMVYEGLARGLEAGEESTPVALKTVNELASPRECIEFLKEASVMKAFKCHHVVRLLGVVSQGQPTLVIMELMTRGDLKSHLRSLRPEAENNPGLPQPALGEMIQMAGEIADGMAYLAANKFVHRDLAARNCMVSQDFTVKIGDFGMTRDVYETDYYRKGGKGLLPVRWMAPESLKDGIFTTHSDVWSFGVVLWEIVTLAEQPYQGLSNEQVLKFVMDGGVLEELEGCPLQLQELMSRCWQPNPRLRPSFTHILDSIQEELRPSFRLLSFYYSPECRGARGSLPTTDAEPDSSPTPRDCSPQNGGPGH

PRKCA (human) = PRKCA (human) (UniProt P17252)
MKNK2 (human) = MKNK2 (human) (UniProt Q9HBH9)
MAP3K9 (human) = MAP3K9 (human) (UniProt P80192)
Chain of MAP3K9 (human) (P80192 whole entry, looked up): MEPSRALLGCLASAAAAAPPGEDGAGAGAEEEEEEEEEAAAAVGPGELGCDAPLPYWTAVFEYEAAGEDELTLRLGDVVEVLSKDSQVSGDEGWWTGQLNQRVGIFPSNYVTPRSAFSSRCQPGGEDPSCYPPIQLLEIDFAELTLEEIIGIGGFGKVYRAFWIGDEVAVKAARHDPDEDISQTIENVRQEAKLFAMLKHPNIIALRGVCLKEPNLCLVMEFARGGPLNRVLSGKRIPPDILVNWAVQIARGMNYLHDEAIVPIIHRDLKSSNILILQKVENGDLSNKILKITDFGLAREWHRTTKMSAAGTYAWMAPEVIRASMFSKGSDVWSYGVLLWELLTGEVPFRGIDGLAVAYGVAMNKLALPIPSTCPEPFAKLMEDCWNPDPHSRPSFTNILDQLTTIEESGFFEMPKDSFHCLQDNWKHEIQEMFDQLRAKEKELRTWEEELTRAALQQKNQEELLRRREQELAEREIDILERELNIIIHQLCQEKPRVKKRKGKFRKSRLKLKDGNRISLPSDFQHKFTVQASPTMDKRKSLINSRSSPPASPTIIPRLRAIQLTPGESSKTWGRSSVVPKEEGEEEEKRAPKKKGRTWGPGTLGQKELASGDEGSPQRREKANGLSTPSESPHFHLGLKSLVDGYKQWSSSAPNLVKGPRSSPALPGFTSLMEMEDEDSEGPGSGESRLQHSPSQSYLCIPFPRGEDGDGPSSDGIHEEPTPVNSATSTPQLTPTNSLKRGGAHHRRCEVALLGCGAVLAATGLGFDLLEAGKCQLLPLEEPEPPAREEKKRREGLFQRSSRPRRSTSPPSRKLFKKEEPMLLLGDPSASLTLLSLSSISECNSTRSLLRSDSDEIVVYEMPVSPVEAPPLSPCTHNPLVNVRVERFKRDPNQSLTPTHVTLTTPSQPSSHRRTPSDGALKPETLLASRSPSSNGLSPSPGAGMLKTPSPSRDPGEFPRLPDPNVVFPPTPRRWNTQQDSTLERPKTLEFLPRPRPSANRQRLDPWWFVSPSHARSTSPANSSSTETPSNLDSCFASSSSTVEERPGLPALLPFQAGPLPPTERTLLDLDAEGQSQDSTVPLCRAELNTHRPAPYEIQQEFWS

MAPK11 (human) = MAPK11 (human) (UniProt Q15759)
CLK2 (human) = CLK2 (human) (UniProt P49760)
INSR (human) = INSR (human) (UniProt P06213)
DYRK2 (human) = DYRK2 (human) (UniProt Q92630)
RPS6KA5 KD1 KD2 (human) = RPS6KA5 KD1 KD2 (human) (UniProt O75582)
[3] = system: RPS6KB1 (human), P23443 [T412E]
CSNK1D (human) = CSNK1D (human) (UniProt P48730)
Chain of CSNK1D (human) (P48730 whole entry, looked up): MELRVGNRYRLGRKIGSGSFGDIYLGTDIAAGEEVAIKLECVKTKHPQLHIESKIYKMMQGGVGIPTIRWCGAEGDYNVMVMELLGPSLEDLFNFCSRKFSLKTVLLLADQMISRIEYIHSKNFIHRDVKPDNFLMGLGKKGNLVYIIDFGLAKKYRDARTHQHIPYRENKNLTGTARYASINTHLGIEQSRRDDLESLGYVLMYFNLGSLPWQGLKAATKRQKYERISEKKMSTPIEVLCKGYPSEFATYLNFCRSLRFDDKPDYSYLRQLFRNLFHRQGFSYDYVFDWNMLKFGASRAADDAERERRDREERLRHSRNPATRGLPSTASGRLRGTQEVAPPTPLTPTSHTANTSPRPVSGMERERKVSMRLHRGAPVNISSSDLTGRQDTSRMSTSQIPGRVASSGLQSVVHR

NEK2 (human) = NEK2 (human) (UniProt P51955)
HIPK2 (human) = HIPK2 (human) (UniProt Q9H2X6)
AURKA (human) = AURKA (human) (UniProt O14965)

Chain of CSNK2A1 (human) (P68400 whole entry, looked up): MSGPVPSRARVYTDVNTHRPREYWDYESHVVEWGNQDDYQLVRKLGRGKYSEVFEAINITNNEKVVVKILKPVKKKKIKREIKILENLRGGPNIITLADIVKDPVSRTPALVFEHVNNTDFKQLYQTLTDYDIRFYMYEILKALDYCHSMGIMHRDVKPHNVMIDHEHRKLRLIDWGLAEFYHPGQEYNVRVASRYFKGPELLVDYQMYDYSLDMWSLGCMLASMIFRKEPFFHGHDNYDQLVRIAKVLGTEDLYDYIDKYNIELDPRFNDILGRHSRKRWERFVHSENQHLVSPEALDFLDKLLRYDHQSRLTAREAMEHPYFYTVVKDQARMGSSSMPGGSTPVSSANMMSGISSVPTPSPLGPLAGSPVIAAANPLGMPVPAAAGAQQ
Chain of BTK (human) (Q06187 whole entry, looked up): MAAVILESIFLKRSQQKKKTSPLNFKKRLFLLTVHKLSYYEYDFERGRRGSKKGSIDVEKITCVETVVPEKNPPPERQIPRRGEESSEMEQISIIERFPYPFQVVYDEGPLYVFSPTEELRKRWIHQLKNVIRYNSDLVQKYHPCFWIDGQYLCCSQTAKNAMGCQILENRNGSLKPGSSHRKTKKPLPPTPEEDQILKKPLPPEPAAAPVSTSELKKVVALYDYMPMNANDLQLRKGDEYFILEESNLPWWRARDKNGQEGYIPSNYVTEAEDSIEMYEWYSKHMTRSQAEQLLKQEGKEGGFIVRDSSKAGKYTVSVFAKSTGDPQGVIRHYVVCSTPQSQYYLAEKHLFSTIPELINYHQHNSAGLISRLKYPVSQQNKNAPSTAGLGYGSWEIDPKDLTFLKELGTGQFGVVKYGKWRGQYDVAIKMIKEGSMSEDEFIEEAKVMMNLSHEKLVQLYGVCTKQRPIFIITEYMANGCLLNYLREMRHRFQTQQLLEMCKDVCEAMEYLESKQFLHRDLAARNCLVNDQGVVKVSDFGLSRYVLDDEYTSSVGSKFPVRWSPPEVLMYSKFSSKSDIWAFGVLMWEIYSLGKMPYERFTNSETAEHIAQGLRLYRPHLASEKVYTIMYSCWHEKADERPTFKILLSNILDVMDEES
Chain of IRAK4 (human) (Q9NWZ3 whole entry, looked up): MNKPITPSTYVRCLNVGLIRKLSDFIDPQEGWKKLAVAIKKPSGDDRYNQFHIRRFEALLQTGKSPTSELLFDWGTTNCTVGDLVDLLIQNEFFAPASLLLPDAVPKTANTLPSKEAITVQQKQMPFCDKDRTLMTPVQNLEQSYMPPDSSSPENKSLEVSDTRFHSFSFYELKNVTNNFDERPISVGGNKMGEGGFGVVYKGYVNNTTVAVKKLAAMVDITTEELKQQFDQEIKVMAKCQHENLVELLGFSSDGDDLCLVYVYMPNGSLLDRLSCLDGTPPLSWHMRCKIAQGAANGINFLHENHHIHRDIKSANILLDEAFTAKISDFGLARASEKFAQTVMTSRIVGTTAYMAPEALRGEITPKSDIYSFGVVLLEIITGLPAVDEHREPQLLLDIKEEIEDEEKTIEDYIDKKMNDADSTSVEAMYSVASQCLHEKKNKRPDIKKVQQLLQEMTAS

residual activity (YES1 (human); compound 0.01 µM): 76%
residual activity (YES1 (human); compound 0.1 µM): 20%
residual activity (YES1 (human); compound 1.0 µM): 2%
residual activity (SRPK1 (human); compound 0.01 µM): 89%
residual activity (SRPK1 (human); compound 0.1 µM): 53%
residual activity (SRPK1 (human); compound 1.0 µM): 11%
residual activity ([1]; compound 0.01 µM): 109%
residual activity ([1]; compound 0.1 µM): 51%
residual activity ([1]; compound 1.0 µM): 8%
residual activity (MAPK1 (human); compound 0.01 µM): 22%
residual activity (MAPK1 (human); compound 0.1 µM): 6%
residual activity (MAPK1 (human); compound 1.0 µM): 5%
residual activity (CSNK2A1 (human); compound 0.01 µM): 106%
residual activity (CSNK2A1 (human); compound 0.1 µM): 108%
residual activity (CSNK2A1 (human); compound 1.0 µM): 80%
residual activity (BTK (human); compound 0.01 µM): 49%
residual activity (BTK (human); compound 0.1 µM): 11%
residual activity (BTK (human); compound 1.0 µM): 9%
residual activity (IRAK4 (human); compound 0.01 µM): 7%
residual activity (IRAK4 (human); compound 0.1 µM): 7%
residual activity (IRAK4 (human); compound 1.0 µM): 4%
residual activity (RIPK2 (human); compound 0.01 µM): 80%
residual activity (RIPK2 (human); compound 0.1 µM): 26%
residual activity (RIPK2 (human); compound 1.0 µM): 9%
residual activity (MAP3K1 (human); compound 0.01 µM): 97%
residual activity (MAP3K1 (human); compound 0.1 µM): 78%
residual activity (MAP3K1 (human); compound 1.0 µM): 23%
residual activity (MAPKAPK3 (human); compound 0.01 µM): 91%
residual activity (MAPKAPK3 (human); compound 0.1 µM): 74%
residual activity (MAPKAPK3 (human); compound 1.0 µM): 29%
residual activity (NEK6 (human); compound 0.01 µM): 87%
residual activity (NEK6 (human); compound 0.1 µM): 89%
residual activity (NEK6 (human); compound 1.0 µM): 72%
residual activity (FLT1 (human); compound 0.01 µM): 17%
residual activity (FLT1 (human); compound 0.1 µM): 13%
residual activity (FLT1 (human); compound 1.0 µM): 4%
residual activity (MAPK14 (human); compound 0.01 µM): 106%
residual activity (MAPK14 (human); compound 0.1 µM): 109%
residual activity (MAPK14 (human); compound 1.0 µM): 105%
residual activity (JAK2 JH1 JH2 (human); compound 0.01 µM): 10%
residual activity (JAK2 JH1 JH2 (human); compound 0.1 µM): 12%
residual activity (JAK2 JH1 JH2 (human); compound 1.0 µM): 7%
residual activity (MARK4 (human); compound 0.01 µM): 10%
residual activity (MARK4 (human); compound 0.1 µM): 2%
residual activity (MARK4 (human); compound 1.0 µM): 1%
residual activity ([2]; compound 0.01 µM): 103%
residual activity ([2]; compound 0.1 µM): 50%
residual activity ([2]; compound 1.0 µM): 35%
residual activity (HIPK1 (human); compound 0.01 µM): 98%
residual activity (HIPK1 (human); compound 0.1 µM): 82%
residual activity (HIPK1 (human); compound 1.0 µM): 22%
residual activity (RPS6KA1 KD1 KD2 (human); compound 0.01 µM): 9%
residual activity (RPS6KA1 KD1 KD2 (human); compound 0.1 µM): 3%
residual activity (RPS6KA1 KD1 KD2 (human); compound 1.0 µM): 1%
residual activity (MARK3 (human); compound 0.01 µM): 7%
residual activity (MARK3 (human); compound 0.1 µM): 3%
residual activity (MARK3 (human); compound 1.0 µM): 2%
residual activity (NTRK1 (human); compound 0.01 µM): 5%
residual activity (NTRK1 (human); compound 0.1 µM): 3%
residual activity (NTRK1 (human); compound 1.0 µM): 2%
residual activity (INSRR (human); compound 0.01 µM): 47%
residual activity (INSRR (human); compound 0.1 µM): 12%
residual activity (INSRR (human); compound 1.0 µM): 9%
residual activity (PRKCA (human); compound 0.01 µM): 79%
residual activity (PRKCA (human); compound 0.1 µM): 44%
residual activity (MKNK2 (human); compound 0.01 µM): 93%
residual activity (MKNK2 (human); compound 0.1 µM): 12%
residual activity (MKNK2 (human); compound 1.0 µM): 10%
residual activity (MAP3K9 (human); compound 0.01 µM): 3%
residual activity (MAP3K9 (human); compound 0.1 µM): 2%
residual activity (MAP3K9 (human); compound 1.0 µM): 2%
residual activity (MAPK11 (human); compound 0.01 µM): 108%
residual activity (MAPK11 (human); compound 0.1 µM): 96%
residual activity (MAPK11 (human); compound 1.0 µM): 79%
residual activity (CLK2 (human); compound 0.01 µM): 9%
residual activity (CLK2 (human); compound 0.1 µM): -1%
residual activity (CLK2 (human); compound 1.0 µM): -1%
residual activity (INSR (human); compound 0.01 µM): 120%
residual activity (INSR (human); compound 0.1 µM): 76%
residual activity (INSR (human); compound 1.0 µM): 11%
residual activity (DYRK2 (human); compound 0.01 µM): 41%
residual activity (DYRK2 (human); compound 0.1 µM): 9%
residual activity (DYRK2 (human); compound 1.0 µM): 4%
residual activity (RPS6KA5 KD1 KD2 (human); compound 0.01 µM): 41%
residual activity (RPS6KA5 KD1 KD2 (human); compound 0.1 µM): 10%
residual activity (RPS6KA5 KD1 KD2 (human); compound 1.0 µM): 2%
residual activity ([3]; compound 0.01 µM): 37%
residual activity ([3]; compound 0.1 µM): 6%
residual activity ([3]; compound 1.0 µM): 3%
residual activity (CSNK1D (human); compound 0.01 µM): 109%
residual activity (CSNK1D (human); compound 0.1 µM): 107%
residual activity (CSNK1D (human); compound 1.0 µM): 96%
residual activity (NEK2 (human); compound 0.01 µM): 105%
residual activity (NEK2 (human); compound 0.1 µM): 105%
residual activity (NEK2 (human); compound 1.0 µM): 66%
residual activity (HIPK2 (human); compound 0.01 µM): 85%
residual activity (HIPK2 (human); compound 0.1 µM): 30%
residual activity (HIPK2 (human); compound 1.0 µM): 6%
residual activity (AURKA (human); compound 0.01 µM): 28%
residual activity (AURKA (human); compound 0.1 µM): 4%
residual activity (AURKA (human); compound 1.0 µM): 5%
SMILES: CNC(=O)C1[C@H]2O[C@@](C)([C@@H]1N)n1c3ccccc3c3c4c(c5c6ccccc6n2c5c31)C(=O)NC4 (some centres undefined)
residual activity (MAPK15 (human); compound 0.01 µM): 48%
residual activity (MAPK15 (human); compound 0.1 µM): 8%
residual activity (MAPK15 (human); compound 1.0 µM): 11%
